Test system: C57BL/6 mice
Experiment: Serum cytokine levels in C57BL/6 mice after i.v. injection (Luminex)
Format: in vivo
Details: 0.1 micromole SM-360320 or equivalent amount UC-1V150/MSA (500 μg MSA per mouse), FIG. 5
Protocol: FIGS. 5A, 5B, 5C, and 5D illustrate the increased potency and duration of effect of UC-1V150/MSA. C57BL/6 mice were injected (i.v.) with (A) 0.1 micromole of SM-360320, a TLR7 ligand, or (B) equivalent amount of a TLR7 agonist UC-1V150 (aldehyde-modified SM-360320) or UC-1V150/MSA to 500 μg MSA per mouse. Serum samples were collected at the indicated time points and cytokine levels were analyzed by Luminex. MSA=mouse serum albumin. The effect from the original TLR7 ligand, SM-360320, lasted for only 2 hours whereas UC-1V150/MSA has extended the effect to at least 6 hours.
FIGS. 7A and 7B illustrates an increased potency of UC-1V150/MSA. C57BL/6 mice were i.v. injected with 380 nmole of SM-360320 or UC-1V150, or 500 μg of UC-1V150/MSA (equivalent to 3.8 nmole UC-1V150) per mouse. Serum samples were collected after 2 h and cytokine levels were analyzed by Luminex. To achieve the similar effect, at least 100-fold higher concentration of either UC-1V150 or SM-360320 was required as compared to that of UC-1V150/MSA.

SMILES: COCCOc1nc(N)c2[nH]c(=O)n(Cc3ccccc3)c2n1 [SM-360320]
- duration of effect (serum cytokine levels): 2 h

— patent publication US20130165455A1, “TLR AGONISTS” (The Regents of The University of California, priority 2005, published 2013)
